Assay results reported in ChEMBL document CHEMBL1158893, “New icetexane and 20 norabietane diterpenes with trypanocidal activity from Dracocephalum komarovi” (2003).
In brackets after ≈: the same amount, converted by molar mass.

The compounds below were run on Trypanosoma cruzi (assay: Trypanocidal activity against Trypanosoma cruzi epimastigotes).
Assay type: functional

| Structure (SMILES) | MLC |
| --- | --- |
| CC(C)c1c(O)c2c(c3c1OCO3)C[C@@]1(O)CCCC(C)(C)[C@@H]1CC2=O [CYCLOCOULTERONE] | 20 µM (≈ 7.21 µg/mL) |
| COc1c(O)c2c(c(O)c1C(C)C)C(=O)C[C@H]1[C@]3(C)CCC[C@]21OC3 [DRACOCEPHALONE A] | 200 µM (≈ 69.3 µg/mL) |
| CN(C)c1ccc(C(=C2C=CC(=[N+](C)C)C=C2)c2ccc(N(C)C)cc2)cc1.[Cl-] [GENTIAN VIOLET] | 6.3 µM |
| COC1=C(C(C)C)C(=O)C2=C(C[C@@]34CCCC(C)(C)[C@@H]3C[C@]2(O)O4)C1=O [KOMAROVIQUINONE] | 0.4 µM (≈ 0.144 µg/mL) |
